Entries after “also recorded” stand apart in the source; their conditions may differ. Where two headings read alike, the source gives them in different places.
Key:
SARS-CoV-2 helicase = SARS-CoV-2 helicase (Severe acute respiratory syndrome coronavirus 2, UniProt P0DTD1); assay type: binding
[1] = biological target: SARS-CoV-2 RdRp nsp12/7/8 complex (Severe acute respiratory syndrome coronavirus 2, UniProt P0DTD1); assay: biochemical; assay type: biochemical; conditions: for IC50: RdRp IC50 [µM]; for inhibition at 20 µM: read-out: RdRp Inhibition [%] 20 µM (PS Inhibition RdRp [%])
[2] = biological target: SARS-CoV-2 helicase (nsp13) (Severe acute respiratory syndrome coronavirus 2, UniProt P0DTD1); assay: biochemical; assay type: biochemical
[3] = biological target: SARS-CoV-2 nsp13 NTPase activity (Severe acute respiratory syndrome coronavirus 2, UniProt P0DTD1); assay: biochemical; assay type: biochemical; conditions: for inhibition at 20 µM: read-out: ATPase inhibition [%] 20 µM (HC Helicase ATPase inhibition [%])
GTPase dynamin = conditions: read-out: IC50 GTPase dynamin; ref Medchemexpress, 2023; cited from earlier work
RdRp complex = RdRp complex (Severe acute respiratory syndrome coronavirus 2, UniProt P0DTD1); assay type: binding, SARS-CoV-2
SARS-CoV-2 RdRp = conditions: biochemical readout; ref Yin et al., 2021; cited from earlier work
[4] = read-out: DTT Helicase unwinding inhibition [%] 2.5 µM triplicates
[5] = read-out: Helicase Inhibition [%] 20 µM (PS Inhibition Helicase [%])
[6] = read-out: Helicase unwinding inhibition 2.5 µM triplicates
[7] = read-out: DTT nsp13 inhibition [%] 20 µM (DTT HC Helicase inhibition [%])

SMILES	Helicase Tm °C 20 µM (SARS-CoV-2 helicase)	Helicase Tm °C 100 µM (SARS-CoV-2 helicase)	effect on helicase Tm (SARS-CoV-2 helicase)	DTT nsp13 inhibition [%] 20 µM (DTT HC Helicase inhibition [%]) [2]	inhibition at 2.5 µM [2, 4]	inhibition at 20 µM [2, 5]	DTT Helicase ATPase activity PLUS DNA substrate 2 µM [3]	DTT Helicase ATPase activity [%] 2 µM [3]	PicoGreen effect [%] 20 µM (annealed dsDNA substrate)	IC50 [1]	inhibition at 20 µM [1]	RdRp Tm °C 20 µM (RdRp complex)	RdRp Tm °C 100 µM (RdRp complex)	effect on RdRp melting temperature (RdRp complex)	inhibition at 20 µM [3]	IC50 ([2]; DTT Helicase IC50 [µM])	also measured
O=C(O[C@@H]1Cc2c(O)cc(O)cc2O[C@@H]1c1cc(O)c(O)c(O)c1)c1cc(O)c(O)c(O)c1 [(−)-epigallocatechin gallate]	38.4 °C	39.6 °C	did not result in a Tm change	78.10%	73.5%	96.4%	31.66	43.42%									RdRp Inhibition [%] 20 µM (PS Inhibition RdRp [%]) [1]: 85.49%; gain of ATPase activity reduction in the presence of dsDNA substrate [3]: 10–15%
O=C(N/N=C/c1ccc(O)c(O)c1)c1cc2ccccc2cc1O [dynasore]						7.02%			6.63%	6.22 µM	96.1%	43.3 °C	44.5 °C	concentration-dependent protein stabilizing effect			change of RdRp IC50 with increasing ATP concentration [1]: did not detect any change; change of RdRp IC50 with increasing oligo-U concentration [1]: gain of potency in the presence of 3 µM oligo-U; IC50 (GTPase dynamin): 15 µM; increase of Tm of RdRp (RdRp complex): about 1.5 K
CC1=NN(c2ccc(C)c(C)c2)C(=O)/C1=N\Nc1cccc(-c2cccc(C(=O)O)c2)c1O [eltrombopag olamine]						3.09%			21.05%	4.29 µM	95.2%	41.5 °C	43.6 °C				
O=C(c1cc(O)c(O)c(O)c1)c1ccc(O)c(O)c1O [exifone]	38.3 °C	37.8 °C	decrease in Tm		99.9%	100%	2.64	14.53%	8.87%		36.6%				104%		DTT Helicase unwinding inhibition [%] 2.5 µM triplicates [2]: 99.91%; inhibition at 2.5 µM [2, 6]: 49.9%; Helicase ATPase activity PLUS DNA substrate 2 µM [3]: 4.96; Helicase ATPase activity [%] 2 µM [3]: 11.33%; gain of ATPase activity reduction in the presence of dsDNA substrate [3]: 10–15%; remaining NTPase activity [3]: 14.5%
O=c1c(O)c(-c2ccc(O)c(O)c2)oc2cc(O)ccc12 [fisetin (fustel), fisetin]						39.3%			4.99%	2.17 µM	95.8%	42.7 °C	43.5 °C				
O=c1c(O)c(-c2cc(O)c(O)c(O)c2)oc2cc(O)cc(O)c12 [myricetin (cannabiscetin), myricetin]	38.3 °C	38.8 °C	did not result in a Tm change	67.25%	22.1%	100%	77.50	62.36%				42.7 °C	43.6 °C	no shift in Tm			inhibition at 20 µM [2, 7]: > 50%
Cc1c(Cl)c(C)[n+]([O-])c(Cl)c1-c1noc(-c2cc(O)c(O)c([N+](=O)[O-])c2)n1 [opicapone]				51.40%					6.86%		17.9%				96.9%	25.5 µM	IC50 ([2]; Helicase IC50 [µM]): 1.1 µM; inhibition at 20 µM [2, 7]: > 50%
CO[C@H](C(=O)[C@@H](O)[C@@H](C)O)[C@@H]1Cc2cc3cc(O[C@H]4C[C@@H](O[C@H]5C[C@@H](O)[C@H](O)[C@@H](C)O5)[C@H](O)[C@@H](C)O4)c(C)c(O)c3c(O)c2C(=O)[C@H]1O[C@H]1C[C@@H](O[C@H]2C[C@@H](O[C@H]3C[C@](C)(O)[C@H](O)[C@@H](C)O3)[C@@H](O)[C@@H](C)O2)[C@H](O)[C@@H](C)O1 [plicamycin (mithramycin), plicamycin]	38.3 °C	38.9 °C	did not result in a Tm change	98.09%	72%	95.8%	133.03	114.66%	−3.94%		6.39%				19.8%	1.35 µM	DTT Helicase unwinding inhibition [%] 2.5 µM triplicates [2]: 71.99%; mode of helicase inhibition towards dsDNA substrate [2]: competitive mode of inhibition towards the dsDNA substrate; IC50 ([2]; Helicase IC50 [µM]): 3.57 µM; inhibition at 2.5 µM [2, 6]: 39%; Helicase ATPase activity PLUS DNA substrate 2 µM [3]: 159.86; Helicase ATPase activity [%] 2 µM [3]: 125.71%; remaining NTPase activity [3]: 114.6%
Cc1ccc(C(=O)Nc2ccc(S(=O)(=O)O)c3cc(S(=O)(=O)O)cc(S(=O)(=O)O)c23)cc1NC(=O)c1cccc(NC(=O)Nc2cccc(C(=O)Nc3cc(C(=O)Nc4ccc(S(=O)(=O)O)c5cc(S(=O)(=O)O)cc(S(=O)(=O)O)c45)ccc3C)c2)c1 [suramin hexasodium]	36.8 °C	36.5 °C	decrease in Tm	92.60%	53.1%	98%	63.38	121.61%		0.24 µM		44.3 °C	46.6 °C	increase in melting temperature; also recorded: concentration-dependent protein stabilizing effect		5.42 µM	fold stronger inhibition of SARS-CoV-2 RdRp compared to Remdesivir (SARS-CoV-2 RdRp): 20 fold; RdRp Inhibition [%] 20 µM (PS Inhibition RdRp [%]) [1]: 98.49%; change of RdRp IC50 with increasing ATP concentration [1]: no changes in IC50; change of RdRp IC50 with increasing oligo-U concentration [1]: no changes in IC50; inhibition of helicase NTPase activity, 2 mM DTT [3]: only active in presence of dsDNA substrate; inhibition of helicase NTPase activity, absence of DTT [3]: showed inhibition in absence of DTT, independent of the presence of the dsDNA substrate
